Bridge positions count the residues as written; N and C are the ends. Square brackets hold non-standard residues; d marks the D form. Peptide text beside a SMILES is read from it. * marks the point of attachment. ξ: configuration not given here. Phe(3-CF3) = N[C@@H](Cc1cccc(C(F)(F)F)c1)C(=O)O; Ala(morpholin-4-yl) = N[C@@H](CN1CCOCC1)C(=O)O; Phe(4-COOH) = N[C@@H](Cc1ccc(C(=O)O)cc1)C(=O)O; Bip = N[C@@H](Cc1ccc(-c2ccccc2)cc1)C(=O)O; Phe(3-CN) = N#Cc1cccc(C[C@H](N)C(=O)O)c1; Phe(3-OMe) = COc1cccc(C[C@H](N)C(=O)O)c1; Phe(3-Me) = Cc1cccc(C[C@H](N)C(=O)O)c1; Val(3-OH) = CC(C)(O)[C@H](N)C(=O)O; 4Pal = N[C@@H](Cc1ccncc1)C(=O)O; Cha = N[C@@H](CC1CCCCC1)C(=O)O; Ile(3ξ) = CCC(C)[C@H](N)C(=O)O; aThr = C[C@H](O)[C@H](N)C(=O)O; NMeOrn = CN[C@@H](CCCN)C(=O)O; Thr(3ξ) = CC(O)[C@H](N)C(=O)O; dNva = CCC[C@@H](N)C(=O)O; Carboxymethyl = O=C(O)C*; NMeA = CN[C@@H](C)C(=O)O; Orn = NCCC[C@H](N)C(=O)O; Pra = C#CC[C@H](N)C(=O)O; Dab = NCC[C@H](N)C(=O)O; Dap = NC[C@H](N)C(=O)O

Broadly, the IC50 is the concentration that gives 50% inhibition.

The target of the first assay is T1, PE-labeled human PD-L1-Ig binding to Jurkat cell line over-expressing human PD-1 (Jurkat-PD-1) (Homo sapiens, UniProt Q15116).
T1 construct: expressed in transfected cells; host or cells: Jurkat
T1 sequence (Q15116 25-288): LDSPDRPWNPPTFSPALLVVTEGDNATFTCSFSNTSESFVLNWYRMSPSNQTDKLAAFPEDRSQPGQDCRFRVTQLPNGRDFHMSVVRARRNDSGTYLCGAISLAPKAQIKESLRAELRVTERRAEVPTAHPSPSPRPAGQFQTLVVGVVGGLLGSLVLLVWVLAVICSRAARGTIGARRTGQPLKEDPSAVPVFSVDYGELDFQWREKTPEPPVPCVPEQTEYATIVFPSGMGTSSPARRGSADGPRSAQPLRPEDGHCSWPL
Kind of assay: Jurkat-PD-1 Cell Binding High-Content Screening Assay (CBA): Method 1. Conditions: Jurkat HPDL1 PD1 IC50 (Method 1), cells printed in nM.
`CC(C)C[C@H]1NC(=O)[C@H](C)N(C)C(=O)[C@H](Cc2ccc(C(=O)O)cc2)NC(=O)[C@H](Cc2ccc(-c3ccccc3)cc2)NC(=O)[C@H](Cc2ccc(C(=O)O)cc2)NC(=O)[C@H](Cc2cccc(C(F)(F)F)c2)NC(=O)[C@H](CC(=O)O)NC(=O)[C@H](Cc2ccc(C(=O)O)cc2)NC(=O)[C@H](CN2CCOCC2)NC(=O)CSC[C@@H](C(=O)N[C@@H](CCN)C(N)=O)NC(=O)[C@H](CCC(=O)O)NC(=O)[C@H](C(C)C)NC(=O)[C@H](CC2CCCCC2)NC(=O)[C@H](CCN)NC1=O` [Example 2268] ({CH2CO}-[Ala(morpholin-4-yl)][Phe(4-COOH)]D[Phe(3-CF3)][Phe(4-COOH)][Bip][Phe(4-COOH)][NMeA][dL][Dab][Cha]VEC[Dab]-NH2; thioether N-14): the IC50 is 1.3 nM.

Staying with this assay, now noted: Jurkat HPDL1 PD1 IC50 (uM) (Method 1), Jurkat-hPD-1 cells, PE-labeled PD-L1-Ig 20 nM final.
In turn, `Cc1cccc(C[C@@H]2NC(=O)[C@H](CC(=O)O)NC(=O)[C@H](Cc3ccccc3)NC(=O)[C@H](CN)NC(=O)CSC[C@@H](C(=O)N[C@@H](C)C(N)=O)NC(=O)[C@H](CO)NC(=O)[C@H](Cc3ccccc3)NC(=O)[C@H](CC(C)C)NC(=O)[C@H](CC(N)=O)NC(=O)[C@@H](CC(C)C)NC(=O)[C@H](C)N(C)C(=O)[C@H](Cc3ccccc3)NC(=O)[C@H](Cc3ccc(-c4ccccc4)cc3)NC(=O)[C@H](CC(C)C)NC2=O)c1` [Compound 1594] ({CH2CO}-[Dap]FD[Phe(3-Me)]L[Bip]F[NMeA][dL]NLFSCA-NH2; thioether N-14) yielded an IC50 of 10 nM.

Staying with this assay, now noted: Jurkat-hPD-1 cells, PE-labeled PD-L1-Ig 20 nM final; read-out: Jurkat HPDL1 PD1 IC50 (uM) (Method 1).
With `CC(C)C[C@@H]1NC(=O)[C@H](Cc2c[nH]c3ccccc23)NC(=O)[C@H](CC(=O)O)NC(=O)[C@H](Cc2ccc(O)cc2)NC(=O)[C@H](CC(N)=O)NC(=O)CSC[C@@H](C(=O)N[C@@H](C)C(N)=O)NC(=O)[C@H](CO)NC(=O)[C@H](C(C)C)NC(=O)[C@H](CC(C)C)NC(=O)[C@H](CC(N)=O)NC(=O)[C@@H](C)NC(=O)[C@H](C)N(C)C(=O)[C@H](C(C)C)NC(=O)[C@H](Cc2ccc(-c3ccccc3)cc2)NC1=O` [Compound 1762] ({CH2CO}-NYDWL[Bip]V[NMeA][dA]NLVSCA-NH2; thioether N-14), the IC50 came out at 40 nM. With `Cc1cccc(C[C@@H]2NC(=O)[C@H](CC(=O)O)NC(=O)[C@H](Cc3ccc(OCC(=O)O)cc3)NC(=O)[C@H](Cc3ccncc3)NC(=O)CSC[C@@H](C(=O)N[C@@H](CCN)C(N)=O)NC(=O)[C@H](C(C)O)NC(=O)[C@H](C(C)(C)O)NC(=O)[C@H](CC3CCCCC3)NC(=O)[C@H](CCN)NC(=O)[C@@H](CC(C)C)NC(=O)[C@H](C)N(C)C(=O)[C@H](Cc3ccc(OCC(=O)O)cc3)NC(=O)[C@H](Cc3ccc(-c4ccccc4)cc3)NC(=O)[C@H](Cc3ccc(C(=O)O)cc3)NC2=O)c1` (stereo partly drawn) [Compound 2146] ({CH2CO}-[4Pal]Y(Carboxymethyl)D[Phe(3-Me)][Phe(4-COOH)][Bip]Y(Carboxymethyl)[NMeA][dL][Dab][Cha][Val(3-OH)][Thr(3ξ)]C[Dab]-NH2; thioether N-14), the IC50 was determined as 10 nM. On to `CCC(C)[C@@H]1NC(=O)[C@H](Cc2ccc(-c3ccccc3)cc2)NC(=O)[C@H](C(C)C)NC(=O)[C@H](Cc2cccc(C)c2)NC(=O)[C@H](CC(=O)O)NC(=O)[C@H](Cc2ccc(C(=O)O)cc2)NC(=O)[C@H](Cc2ccncc2)NC(=O)CSC[C@@H](C(N)=O)NC(=O)[C@H](CCCN)NC(=O)[C@H](C(C)C)NC(=O)[C@H](CC2CCCCC2)NC(=O)[C@H](CCN)NC(=O)[C@@H](CC(C)C)NC(=O)[C@H](C)N(C)C1=O` (stereo partly drawn) [Compound 1899] ({CH2CO}-[4Pal][Phe(4-COOH)]D[Phe(3-Me)]V[Bip][Ile(3ξ)][NMeA][dL][Dab][Cha]V[Orn]C-NH2; thioether N-14), for which the concentration for half-maximal inhibition (IC50) was 10 nM. On to `CCC[C@H]1NC(=O)[C@H](C)N(C)C(=O)[C@H](CCCNC(=N)N)NC(=O)[C@H](Cc2ccc(-c3ccccc3)cc2)NC(=O)[C@H](C(C)C)NC(=O)[C@H](Cc2c[nH]c3ccccc23)NC(=O)[C@H](CC(=O)O)NC(=O)[C@H](Cc2ccc(O)cc2)NC(=O)[C@H](Cc2ccccc2)NC(=O)CSC[C@@H](C(=O)N[C@@H](C)C(N)=O)NC(=O)[C@H]([C@@H](C)O)NC(=O)[C@H](C(C)C)NC(=O)[C@H](CC(C)C)NC(=O)[C@H](CCCNC(=N)N)NC1=O` [Compound 1064] ({CH2CO}-FYDWV[Bip]R[NMeA][dNva]RLVTCA-NH2; thioether N-14), for which the IC50 turned out to be 100 nM. Same read-out and setting: then `Cc1cccc(C[C@@H]2NC(=O)[C@H](CC(=O)O)NC(=O)[C@H](Cc3ccc(OCC(=O)O)cc3)NC(=O)[C@H](Cc3ccc(OCC(=O)O)cc3)NC(=O)CSC[C@@H](C(=O)N[C@@H](C)C(N)=O)NC(=O)[C@H]([C@H](C)O)NC(=O)[C@H](C(C)C)NC(=O)[C@H](CC(C)C)NC(=O)[C@H](CCN)NC(=O)[C@@H](CC(C)C)NC(=O)[C@H](C)N(C)C(=O)[C@H](C(C)C)NC(=O)[C@H](Cc3ccc(-c4ccccc4)cc3)NC(=O)[C@H](C(C)C)NC2=O)c1` [Compound 1578] ({CH2CO}-Y(Carboxymethyl)Y(Carboxymethyl)D[Phe(3-Me)]V[Bip]V[NMeA][dL][Dab]LV[aThr]CA-NH2; thioether N-14), with 10 nM. On to `CC(C)C[C@@H]1NC(=O)[C@H](CCN)NC(=O)[C@@H](CC(C)C)NC(=O)[C@H](C)N(C)C(=O)[C@H](C(C)C)NC(=O)[C@H](Cc2ccc(-c3ccccc3)cc2)NC(=O)[C@H](C(C)C)NC(=O)[C@H](Cc2c[nH]c3ccccc23)NC(=O)[C@H](CC(=O)O)NC(=O)[C@H](Cc2cccc(C#N)c2)NC(=O)[C@H](CC(N)=O)NC(=O)CSC[C@@H](C(=O)N[C@@H](C)C(N)=O)NC(=O)[C@H]([C@@H](C)O)NC(=O)[C@H](C(C)C)NC1=O` [Compound 1380] ({CH2CO}-N[Phe(3-CN)]DWV[Bip]V[NMeA][dL][Dab]LVTCA-NH2; thioether N-14), for which the IC50 came to 20 nM. With `CC(C)C[C@@H]1NC(=O)[C@H](CCN)NC(=O)[C@@H](CC(C)C)NC(=O)[C@H](C)N(C)C(=O)[C@H](C(C)C)NC(=O)[C@H](Cc2ccc(-c3ccccc3)cc2)NC(=O)[C@H](C(C)C)NC(=O)[C@H](Cc2c[nH]c3ccccc23)NC(=O)[C@H](CC(=O)O)NC(=O)[C@H](Cc2ccc(O)cc2)NC(=O)[C@H](Cc2cnc[nH]2)NC(=O)CSC[C@@H](C(=O)N[C@@H](C)C(N)=O)NC(=O)[C@H]([C@@H](C)O)NC(=O)[C@H](C(C)C)NC1=O` [Compound 1358] ({CH2CO}-HYDWV[Bip]V[NMeA][dL][Dab]LVTCA-NH2; thioether N-14), the IC50 was found to be 10 nM. Still for that read-out and setting: then `COc1cccc(C[C@@H]2NC(=O)[C@H](CC(=O)O)NC(=O)[C@H](Cc3ccc(O)cc3)NC(=O)[C@H](CC(N)=O)NC(=O)CSC[C@@H](C(=O)N[C@@H](C)C(N)=O)NC(=O)[C@H]([C@@H](C)O)NC(=O)[C@H](C(C)C)NC(=O)[C@H](CC(C)C)NC(=O)[C@H](CCN)NC(=O)[C@@H](CC(C)C)NC(=O)[C@H](C)N(C)C(=O)[C@H](C(C)C)NC(=O)[C@H](Cc3ccc(-c4ccccc4)cc3)NC(=O)[C@H](C(C)C)NC2=O)c1` [Compound 1277] ({CH2CO}-NYD[Phe(3-OMe)]V[Bip]V[NMeA][dL][Dab]LVTCA-NH2; thioether N-14), with 20 nM; and `Cc1cccc(C[C@@H]2NC(=O)[C@H](CC(=O)O)NC(=O)[C@H](Cc3ccc(OCC(=O)O)cc3)NC(=O)[C@H](Cc3ccncc3)NC(=O)CSC[C@@H](C(=O)N[C@@H](CCN)C(N)=O)NC(=O)[C@H](CO)NC(=O)[C@H](C(C)(C)O)NC(=O)[C@H](CC3CCCCC3)NC(=O)[C@H](CCN)NC(=O)[C@@H](CC(C)C)NC(=O)[C@H](CCCN)N(C)C(=O)[C@H](Cc3ccc(OCC(=O)O)cc3)NC(=O)[C@H](Cc3ccc(-c4ccccc4)cc3)NC(=O)[C@H](Cc3ccc(OCC(=O)O)cc3)NC2=O)c1` [Compound 1836] ({CH2CO}-[4Pal]Y(Carboxymethyl)D[Phe(3-Me)]Y(Carboxymethyl)[Bip]Y(Carboxymethyl)[NMeOrn][dL][Dab][Cha][Val(3-OH)]SC[Dab]-NH2; thioether N-14), with 670 nM. For the compound `CC(C)C[C@@H]1NC(=O)[C@H](CCN)NC(=O)[C@@H](CC(C)C)NC(=O)[C@H](C)N(C)C(=O)[C@H](CCCNC(=N)N)NC(=O)[C@H](Cc2ccc(-c3ccccc3)cc2)NC(=O)[C@H](C(C)C)NC(=O)[C@H](Cc2c[nH]c3ccccc23)NC(=O)[C@H](CC(=O)O)NC(=O)[C@H](Cc2ccc(O)cc2)NC(=O)[C@H](CC(N)=O)NC(=O)CSC[C@@H](C(=O)N[C@H](C)C(N)=O)NC(=O)[C@H]([C@@H](C)O)NC(=O)[C@H](C(C)C)NC1=O` [Compound 1183] ({CH2CO}-NYDWV[Bip]R[NMeA][dL][Dab]LVTC[dA]-NH2; thioether N-14), the IC50 stood at 150 nM. Still for that read-out and setting: to `C#CC[C@H](NC(=O)[C@@H](C)NC(=O)[C@@H]1CSCC(=O)N[C@@H](Cc2cnc[nH]2)C(=O)N[C@@H](Cc2ccc(OCC(=O)O)cc2)C(=O)N[C@@H](CC(=O)O)C(=O)N[C@@H](Cc2c[nH]c3ccccc23)C(=O)N[C@@H](C(C)C)C(=O)N[C@@H](Cc2ccc(-c3ccccc3)cc2)C(=O)N[C@@H](C(C)CC)C(=O)N(C)[C@@H](C)C(=O)N[C@H](CC(C)C)C(=O)N[C@@H](CCN)C(=O)N[C@@H](CC2CCCCC2)C(=O)N[C@@H](C(C)(C)O)C(=O)N[C@@H](CO)C(=O)N1)C(=O)O` (stereo partly drawn) [Compound 2239] ({CH2CO}-HY(Carboxymethyl)DWV[Bip][Ile(3ξ)][NMeA][dL][Dab][Cha][Val(3-OH)]SC[dA][Pra]-OH; thioether N-14) belongs 20 nM. Regarding `CC(C)C[C@@H]1NC(=O)[C@H](CCCNC(=N)N)NC(=O)[C@@H](CC(C)C)NC(=O)[C@H](C)N(C)C(=O)[C@H](CCCNC(=N)N)NC(=O)[C@H](Cc2ccc(-c3ccccc3)cc2)NC(=O)[C@H](C(C)C)NC(=O)[C@H](Cc2c[nH]c3ccccc23)NC(=O)[C@H](CC(=O)O)NC(=O)[C@H](Cc2ccc(O)cc2)NC(=O)[C@H](CC(N)=O)NC(=O)CSC[C@@H](C(=O)N[C@@H](C)C(N)=O)NC(=O)[C@H](CO)NC(=O)[C@H](C(C)C)NC1=O` [Compound 1033] ({CH2CO}-NYDWV[Bip]R[NMeA][dL]RLVSCA-NH2; thioether N-14), the IC50 was 30 nM.

(Values after patent US20240409585A1, “MACROCYCLIC IMMUNOMODULATORS” (priority 2021, published 2024).)
